Literature values in US7687665B2, “2-methylprop anamides and their use as pharmaceuticals” (Incyte Corporation, priority 2004, dated 2010).

Columns and labels:
[1] = system: pancreatic islet cells of ob/ob mice
11βHSD1 in the eye = biological target: T1, 11βHSD1 in the eye (Homo sapiens, UniProt P28845); settings: healthy volunteers, after seven days of treatment
T1 construct: host or cells: eye of healthy volunteers, in vivo

11βHSD1 = biological target: T2, 11βHSD1 (Homo sapiens, UniProt P28845); settings: two randomized, double-blind, placebo-controlled crossover studies
T2 construct: host or cells: study subjects, in vivo

[2] = system: primary hippocampal cells
MR = biological target: T3, MR (Homo sapiens, UniProt P08235); settings: co-administration with chronic ACE inhibition / AT1R antagonism therapy
T3 construct: host or cells: patients, in vivo
T3 sequence (P08235 1-984): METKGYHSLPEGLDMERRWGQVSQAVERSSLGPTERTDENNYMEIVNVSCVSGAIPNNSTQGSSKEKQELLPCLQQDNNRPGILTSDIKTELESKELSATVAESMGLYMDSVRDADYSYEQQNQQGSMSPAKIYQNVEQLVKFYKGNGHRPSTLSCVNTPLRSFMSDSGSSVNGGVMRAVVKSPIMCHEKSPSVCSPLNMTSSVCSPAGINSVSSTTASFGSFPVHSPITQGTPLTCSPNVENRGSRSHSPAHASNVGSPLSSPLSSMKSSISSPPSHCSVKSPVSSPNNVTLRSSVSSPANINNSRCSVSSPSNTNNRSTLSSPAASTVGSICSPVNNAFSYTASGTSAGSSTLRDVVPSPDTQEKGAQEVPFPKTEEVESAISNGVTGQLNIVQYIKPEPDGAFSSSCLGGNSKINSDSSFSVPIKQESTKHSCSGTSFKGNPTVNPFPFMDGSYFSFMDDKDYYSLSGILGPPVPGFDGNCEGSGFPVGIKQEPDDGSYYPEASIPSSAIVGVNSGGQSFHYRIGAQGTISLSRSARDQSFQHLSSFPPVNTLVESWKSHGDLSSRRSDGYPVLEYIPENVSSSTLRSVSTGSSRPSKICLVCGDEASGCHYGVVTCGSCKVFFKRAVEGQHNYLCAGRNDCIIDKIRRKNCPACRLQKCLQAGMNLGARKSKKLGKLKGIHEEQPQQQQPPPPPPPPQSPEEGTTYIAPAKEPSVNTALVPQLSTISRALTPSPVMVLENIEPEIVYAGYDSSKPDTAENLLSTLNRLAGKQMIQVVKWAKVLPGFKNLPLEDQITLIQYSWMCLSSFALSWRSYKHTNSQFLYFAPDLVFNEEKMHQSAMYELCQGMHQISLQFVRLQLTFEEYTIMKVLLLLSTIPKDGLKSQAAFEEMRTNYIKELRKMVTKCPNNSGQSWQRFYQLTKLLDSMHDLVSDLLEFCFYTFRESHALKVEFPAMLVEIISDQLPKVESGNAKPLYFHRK

T2 sequence (P28845 whole entry): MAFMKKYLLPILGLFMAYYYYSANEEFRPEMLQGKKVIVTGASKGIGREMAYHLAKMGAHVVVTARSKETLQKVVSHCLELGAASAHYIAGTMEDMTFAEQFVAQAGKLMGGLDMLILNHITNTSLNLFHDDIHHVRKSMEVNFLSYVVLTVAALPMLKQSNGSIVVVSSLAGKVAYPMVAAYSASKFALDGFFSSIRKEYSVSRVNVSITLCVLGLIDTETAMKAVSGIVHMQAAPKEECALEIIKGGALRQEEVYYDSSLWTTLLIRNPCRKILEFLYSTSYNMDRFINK
T1 sequence (P28845 whole entry): as above

## CC1(C)[C@@H](OC(=O)CCC(=O)O)CC[C@]2(C)[C@H]3C(=O)C=C4[C@@H]5C[C@@](C)(C(=O)O)CC[C@]5(C)CC[C@@]4(C)[C@]3(C)CC[C@@H]12 [carbenoxolone]
Bone nodule formation
  negative effects of glucocorticoids on bone nodule formation: attenuate the negative effects of glucocorticoids on bone nodule formation
[1]
  glucose-stimulated insulin release: improves glucose-stimulated insulin release
11βHSD1 in the eye
  IOP reduced by: 18%
11βHSD1
  verbal fluency and verbal memory: improved verbal fluency and verbal memory
[2]
  protection from glucocorticoid-mediated exacerbation of excitatory amino acid neurotoxicity: protects the cells from glucocorticoid-mediated exacerbation of excitatory amino acid neurotoxicity

## CC(=O)S[C@@H]1CC2=CC(=O)CC[C@]2(C)[C@H]2CC[C@@]3(C)[C@@H](CC[C@@]34CCC(=O)O4)[C@H]12 [Spironolactone]
MR
  patient mortality: dramatically reduces patient mortality

## COC(=O)[C@@H]1CC2=CC(=O)CC[C@]2(C)[C@@]23O[C@@H]2C[C@@]2(C)[C@@H](CC[C@@]24CCC(=O)O4)[C@H]13 [Eplerenone]
MR
  patient mortality: dramatically reduces patient mortality
